This assay concerns L1210 leukemia ip in BDF1 mice, survival T/C. The assay is described as follows: NCI In Vivo Anticancer Drug Screen. Data for tumor model L1210 Leukemia (intraperitoneal) in B6D2F1 (BDF1) mice. Conditions: endpoint: mean survival time, higher = longer survival. The gist of the method:
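Tumor cells were implanted, animals were treated, and survival was followed. The result divides the treated measurement by the vehicle-control measurement.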

[1] abbreviates: dose: 50.0 mg/kg/injection, schedule: Q01DX001 (ip), vehicle: saline.
Where [2] appears, read: dose: 50.0 mg/kg/injection, schedule: Q01DX009 (ip), vehicle: saline.
Setting [3] is: dose: 50.0 mg/kg/injection, schedule: Q04DX003 (ip), vehicle: saline.
[4] abbreviates: dose: 100.0 mg/kg/injection, schedule: Q01DX001 (ip), vehicle: saline.
Setting [5] is: dose: 100.0 mg/kg/injection, schedule: Q01DX009 (ip), vehicle: saline.
Setting [6] is: dose: 100.0 mg/kg/injection, schedule: Q04DX003 (ip), vehicle: saline.
[7] abbreviates: dose: 200.0 mg/kg/injection, schedule: Q01DX001 (ip), vehicle: saline.
Where [8] appears, read: dose: 200.0 mg/kg/injection, schedule: Q01DX009 (ip), vehicle: saline.
The mark [9] stands for this setting: dose: 100.0 mg/kg/injection, schedule: Q01DX001 (ip), vehicle: carboxymethylcellulose (CMC).
[10] abbreviates: dose: 200.0 mg/kg/injection, schedule: Q01DX001 (ip), vehicle: carboxymethylcellulose (CMC).
[11] abbreviates: dose: 400.0 mg/kg/injection, schedule: Q01DX001 (ip), vehicle: carboxymethylcellulose (CMC).
[12] abbreviates: dose: 100.0 mg/kg/injection, schedule: Q04DX003 (ip), vehicle: Klucel (hydroxypropylcellulose) (HPC).
Setting [13] is: dose: 200.0 mg/kg/injection, schedule: Q04DX003 (ip), vehicle: Klucel (hydroxypropylcellulose) (HPC).
The mark [14] stands for this setting: dose: 400.0 mg/kg/injection, schedule: Q04DX003 (ip), vehicle: Klucel (hydroxypropylcellulose) (HPC).
[15] abbreviates: dose: 100.0 mg/kg/injection, schedule: Q04DX003 (ip), vehicle: saline with Tween-80.
Setting [16] is: dose: 200.0 mg/kg/injection, schedule: Q04DX003 (ip), vehicle: saline with Tween-80.
Setting [17] is: dose: 400.0 mg/kg/injection, schedule: Q04DX003 (ip), vehicle: saline with Tween-80.
Where [18] appears, read: dose: 100.0 mg/kg/injection, schedule: Q01DX009 (ip), vehicle: saline with Tween-80.

Where “and” joins values, the source holds several entries; their conditions need not be identical. Equal values may be shown once. Inconclusive results and toxic doses are left out.

Turning to `C[n+]1ccc(C=O)cc1`, the T/C was 102 % of control under setting [1]; 104 % of control and 109 % of control under setting [2]; 103 % of control under setting [3]; 105 % of control under setting [4]; 102 % of control and 117 % of control under setting [5]; 94 % of control and 107 % of control (dose: 100.0 mg/kg/injection, schedule: Q04DX002 (ip), vehicle: saline). Moreover, the T/C under setting [6] was 101 % of control; the T/C under setting [7] is 105 % of control; the T/C under setting [8] is 106 % of control and 120 % of control; the T/C (dose: 200.0 mg/kg/injection, schedule: Q04DX002 (ip), vehicle: saline) was 102 % of control and 104 % of control; the T/C (dose: 200.0 mg/kg/injection, schedule: Q04DX003 (ip), vehicle: saline) was 94 % of control; the T/C (dose: 400.0 mg/kg/injection, schedule: Q04DX002 (ip), vehicle: saline) was 98 % of control and 100 % of control.
Regarding `CC(=O)NC(C)(CCOCc1ccccc1)C(=O)O` (stereo unspecified), the T/C was 94 % of control (dose: 50.0 mg/kg/injection, schedule: Q01DX001 (ip), vehicle: carboxymethylcellulose (CMC)); 100 % of control under setting [9]; 110 % of control under setting [10]; 96 % of control under setting [11].
With `CCOC(=O)Cc1cnc(SC)nc1N`, the T/C under setting [12] was 95 % of control, the T/C under setting [13] was 94 % of control and the T/C under setting [14] is 87 % of control.
For `COc1ccc2c(cc1=O)CC=CC1CC(OC)C(OC)C(OC)C21` (stereo unspecified), the T/C is 92 % of control under setting [15], 93 % of control under setting [16] and 101 % of control under setting [17].
`CCC(C)NC(=O)Nc1cccc(Cl)c1C` (stereo unspecified): the T/C is 86 % of control under setting [18]; 90 % of control under setting [15]; 95 % of control under setting [16]; 89 % of control (dose: 400.0 mg/kg/injection, schedule: Q01DX009 (ip), vehicle: saline with Tween-80); 103 % of control under setting [17].
As for `Nc1ccc2c(c1)/C(=N/O)c1ccccc1-2`, the T/C was 105 % of control under setting [9], 97 % of control under setting [10] and 100 % of control under setting [11].
For the molecule `Cc1ccc(Cl)cc1NC(=O)Oc1ccc(Cl)cc1C`, the T/C reads like this: (dose: 12.5 mg/kg/injection, schedule: Q01DX009 (ip), vehicle: Klucel (hydroxypropylcellulose) (HPC)) 95 % of control; (dose: 25.0 mg/kg/injection, schedule: Q01DX009 (ip), vehicle: Klucel (hydroxypropylcellulose) (HPC)) 95 % of control; (dose: 50.0 mg/kg/injection, schedule: Q01DX009 (ip), vehicle: Klucel (hydroxypropylcellulose) (HPC)) 97 % of control; (dose: 100.0 mg/kg/injection, schedule: Q01DX009 (ip), vehicle: Klucel (hydroxypropylcellulose) (HPC)) 96 % of control.
Regarding `CCCCCCCCCCCCCCCCCCOc1ccc(Sc2ccc([N+](=O)[O-])cc2)cc1`, the T/C runs as follows: under setting [12], 87 % of control; under setting [13], 88 % of control; under setting [14], 88 % of control.
`CCN(CC)C(=S)[S][Sn]([c]1ccccc1)([c]1ccccc1)[c]1ccccc1`: the T/C is 109 % of control (dose: 100.0 mg/kg/injection, schedule: Q01DX001 (ip), vehicle: steriod suspending solution); 98 % of control (dose: 200.0 mg/kg/injection, schedule: Q01DX001 (ip), vehicle: steriod suspending solution); 98 % of control (dose: 400.0 mg/kg/injection, schedule: Q01DX001 (ip), vehicle: steriod suspending solution).
With `CNC(=O)c1ccccc1N`, the T/C under setting [15] is 100 % of control, the T/C under setting [16] was 95 % of control and the T/C under setting [17] was 98 % of control.
Turning to `CC(N)Cc1cn(C)c2ccccc12` (stereo unspecified), the T/C (dose: 6.25 mg/kg/injection, schedule: Q01DX009 (ip), vehicle: saline) is 96 % of control; the T/C (dose: 12.5 mg/kg/injection, schedule: Q01DX009 (ip), vehicle: saline) is 105 % of control; the T/C (dose: 25.0 mg/kg/injection, schedule: Q01DX009 (ip), vehicle: saline) was 103 % of control; the T/C (dose: 25.0 mg/kg/injection, schedule: Q04DX003 (ip), vehicle: saline) was 101 % of control; the T/C under setting [2] was 105 % of control; the T/C under setting [3] was 95 % of control. Further, the T/C under setting [5] is 97 % of control and the T/C under setting [6] was 104 % of control.
Regarding `CN1C(=O)CCN(CCN2CCC(=O)N(C)C2=S)C1=S`, the T/C reads like this: (dose: 100.0 mg/kg/injection, schedule: Q04DX002 (ip), vehicle: Klucel (hydroxypropylcellulose) (HPC)) 114 % of control; (dose: 200.0 mg/kg/injection, schedule: Q04DX002 (ip), vehicle: Klucel (hydroxypropylcellulose) (HPC)) 103 % of control; (dose: 400.0 mg/kg/injection, schedule: Q04DX002 (ip), vehicle: Klucel (hydroxypropylcellulose) (HPC)) 96 % of control.
With `c1ccc2c(C3CO3)c3ccc4ccccc4c3cc2c1` (stereo unspecified), the T/C is 113 % of control (dose: 100.0 mg/kg/injection, schedule: Q04DX002 (ip), vehicle: other); 179 % of control (dose: 200.0 mg/kg/injection, schedule: Q04DX002 (ip), vehicle: other); 120 % of control (dose: 400.0 mg/kg/injection, schedule: Q04DX002 (ip), vehicle: other).
As to `N/C(=N\[N+](=O)[O-])N(CCCCl)N=O`, the T/C (dose: 3.12 mg/kg/injection, schedule: Q01DX Z (ip), vehicle: saline) was 105 % of control; the T/C (dose: 6.25 mg/kg/injection, schedule: Q01DX Z (ip), vehicle: saline) is 106 % of control; the T/C (dose: 12.5 mg/kg/injection, schedule: Q01DX Z (ip), vehicle: saline) is 106 % of control; the T/C (dose: 18.75 mg/kg/injection, schedule: Q01DX009 (ip), vehicle: saline with Tween-80) was 107 % of control; the T/C (dose: 25.0 mg/kg/injection, schedule: Q01DX Z (ip), vehicle: saline) was 120 % of control; the T/C (dose: 37.5 mg/kg/injection, schedule: Q01DX009 (ip), vehicle: saline with Tween-80) was 103 % of control. Also, the T/C was 119 % of control (dose: 40.0 mg/kg/injection, schedule: Q01DX Z (ip), vehicle: carboxymethylcellulose (CMC)); 108 % of control under setting [1]; 116 % of control (dose: 60.0 mg/kg/injection, schedule: Q01DX Z (ip), vehicle: carboxymethylcellulose (CMC)); 123 % of control (dose: 75.0 mg/kg/injection, schedule: Q01DX009 (ip), vehicle: saline with Tween-80); 111 % of control (dose: 90.0 mg/kg/injection, schedule: Q01DX Z (ip), vehicle: carboxymethylcellulose (CMC)); 97 % of control under setting [4]. The T/C was 104 % of control (dose: 150.0 mg/kg/injection, schedule: Q01DX009 (ip), vehicle: saline with Tween-80) and 106 % of control under setting [7].
`Nc1nc(NCCCc2ccccc2)c(N=Nc2ccccc2)c(=O)[nH]1`: the T/C is 106 % of control (dose: 100.0 mg/kg/injection, schedule: Q01DX001 (ip), vehicle: saline with Tween-80); 98 % of control and 100 % of control under setting [18]; 94 % of control (dose: 100.0 mg/kg/injection, schedule: Q04DX002 (ip), vehicle: saline with Tween-80); 107 % of control (dose: 200.0 mg/kg/injection, schedule: Q01DX001 (ip), vehicle: saline with Tween-80); 93 % of control and 98 % of control (dose: 200.0 mg/kg/injection, schedule: Q01DX009 (ip), vehicle: saline with Tween-80); 93 % of control and 89 % of control (dose: 200.0 mg/kg/injection, schedule: Q04DX002 (ip), vehicle: saline with Tween-80). Moreover, the T/C is 86 % of control under setting [16]; 104 % of control (dose: 400.0 mg/kg/injection, schedule: Q01DX001 (ip), vehicle: saline with Tween-80); 94 % of control and 89 % of control (dose: 400.0 mg/kg/injection, schedule: Q04DX002 (ip), vehicle: saline with Tween-80); 86 % of control under setting [17].
As to `CS(=O)(=O)C(=C(N1CCCCC1)N1CCCCC1)S(=O)(=O)Cc1ccccc1`, the T/C reads like this: under setting [4], 100 % of control; under setting [5], 88 % of control; under setting [7], 96 % of control; under setting [8], 93 % of control; (dose: 400.0 mg/kg/injection, schedule: Q01DX001 (ip), vehicle: saline) 96 % of control.

Source of the values: PubChem BioAssay AID248 (DTP/NCI, 2004).
